# Test results taken from patent US12433875B2, “(R)-4-(1-(6-(4-(trifluoromethyl)benzyl)-6-azaspiro[2.5]octane-5-carboxamido)-cyclopropyl) benzoic acid or its salt also in polymorphic form a for use in the prevention of heterotopic ossification” (ROTTAPHARM BIOTECH S.R.L., priority 2019, dated 2025).
# “Also recorded” adds a separate entry of the source.
# System: Male Lewis rats (CIA model, heterotopic bone formation)
# Assay: Collagen Induce Arthritis (CIA) in rats, histological scores
# Format: in vivo, rat
# Text: Collagen Induce Arthritis (CIA) in rats is among the most common models used to mimic human arthritis and especially Rheumatoid Arthritis (RA). In general the joint response seen in this model is quite similar to that observed in human pathology, in terms of inflammation, bone erosion and cartilage damage. Nevertheless, this model differs from Rheumatoid Arthritis, since it is endowed with a consistent periosteal woven bone formation (immature bone) that is not a usual feature of human RA (maybe, less than 10% of patients have this type of bone reaction). On the contrary, this disordered apposition of new bone is the distinctive feature of heterotopic ossification. Therefore, this model was used to study the effect of the compound of the invention in Pathological heretopic osteogenesis.
# Male Lewis rats were immunized by intradermal injection at the base of the tail with an emulsion containing 150 μg of bovine collagen type II (bCII) in complete Freund's adjuvant (CFA) or received an injection with incomplete Freund's adjuvant (sham group). Three weeks after the first immunisation, animals were boosted with the same procedure. Three days after booster injection, arthritis had developed in all animals but the sham group. The administration of the compound (1) Form A started at this time point and lasted for 14 days (once a day, unless otherwise indicated).
# The paws were fixed in 10% neutral buffered formalin (Bio-Optica, Milan, Italy) and subsequently decalcified in EDTA for 4 weeks. Samples were dehydrated in an ethanol series and embedded in paraffin. At least three non-consecutive sections for each paw were blindly scored at the level of the tarsus, metatarsus and calcaneus for the following histological features of woven bone. Two independent pathologists performed histopathology on blinded slides. The data of right and left hind limbs were summed for each rat.
# In FIG. 3 the dose-response curve for the compound of the invention is reported. the compound was administered once a day for 14 days on the site where the pathological bone formation was expected as induced in the CIA model in rats. The dose were 1 mg/Kg, 3 mg/kg and 10 mg/kg. The data were expressed as the median (boxed area), 95% interquartile range (whiskers), and individual data (symbols) of the histological scores for heterotopic bone formation (osteogenesis) given by two pathologists unaware of the treatment groups on a following scale: 0=absent; 1=mild/focal; 2=moderate/multifocal; 3=severe/multifocal to diffuse. Since arthritis was bilateral, the scores for each rat was the sum of the two leg scores. […] The compound reached the maximal activity at 10 mg/kg.
# The data were expressed as the median histological scores for heterotopic bone formation (osteogenesis) as described for FIG. 3. […] As for osteogenesis, the data reported in this graph were the median (boxed area), 95% interquartile range (whiskers), and individual data (symbols) of the histological scores for synovial hyperplasia (oedema) given by two pathologists unaware of the treatment groups on a following scale: 0=normal: 1-2 layers of synovial lining cells, 1=mild: focal to multifocal 3-4 layers of synovial lining cells and/or mild proliferation of subsynovial tissue, 2=moderate: focal to mutlitfocal >4-6 layers of synovial lining cells and/or moderate proliferation of subsynovial tissue, 3=severe: multifocal to diffuse >6-8 layers of synovial lining cells and/or severe proliferation of subsynovial tissue. Since arthritis was bilateral, the scores for each rat is the sum of the two leg scores. This underline a preferential and surprising effect of (R)-4-(1-(6-(4-(trifluoromethyl)benzyl)-6-azaspiro[2.5]octane-5-carboxamido)cyclopropyl)benzoic acid on the heterotopic bone formation, […].
# The free acid form has been assayed in the rat CIA model as already described for its sodium salt (Form A). […]
compound,measurement,setting,value
"O=C([O-])c1ccc(C2(NC(=O)[C@H]3CC4(CCN3Cc3ccc(C(F)(F)F)cc3)CC4)CC2)cc1.[Na+] [Form A, sodium (R)-4-(1-(6-(4-(trifluoromethyl)benzyl)-6-azaspiro[2.5]octane-5-carboxamido)cyclopropyl)benzoate]",activity against heterotopic ossification in combination with methotrexate,"1 mg/kg combined with methotrexate 0.5 mg/kg every other day, FIG. 5",not hindered by the combination with this drug
same,activity against heterotopic ossification compared with methotrexate,"1 mg/kg vs methotrexate 0.5 mg/kg every other day, FIG. 5",higher than the comparative compound
same,activity on heterotopic bone formation (osteogenesis) compared with Methylsulfonylmethane (MSM),"10 mg/kg once a day vs MSM 600 mg/kg, FIG. 4",greatly superior
same,control of the inflammatory response (edema; histological scores for synovial hyperplasia),"15 mg/kg each, FIG. 6b",equally effective
same,activity in preventing pathological heterotopic ossification compared with rofecoxib,"15 mg/kg, identical dose of rofecoxib, FIG. 6a",surprisingly superior
same,histological scores for heterotopic bone formation (osteogenesis),"1, 3 and 10 mg/kg once a day for 14 days, FIG. 3",capable to counteract the heterotopic bone formation; also recorded: able to counteract bony spur formation in a dose-dependent fashion
same,lowest effective dose against heterotopic ossification,FIG. 5,1 mg/kg
same,dose of maximal activity against heterotopic bone formation,"once a day for 14 days, FIG. 3",10 mg/kg
